Columns and labels:
TLR2 = conditions: cited from earlier work
Description: In recent years, a variety of lipopeptides have been designed and synthesized to exert adjuvant effects through activating TLR2 ([18]–[20]). […] The TLR2 activity of FSL-1 can reach 4 times that of MALP-2, while Pam2CSK4 is the ...

[1] = cited from earlier work
Description: A number of studies have shown that lipopeptides have a significant mucosal adjuvant effect ([36]–[38]). MALP-2, the mycoplasma-derived lipopeptide, elevated the level of sIgA in BALF and vaginal lavages when intranasal co-administration with a soluble antigen ([25]).

BALB/c mice [2] = assay type: in vivo, mouse; conditions: splenic lymphocytes, 10 μg/mL peptide, 48 h, n=5, Figure 6
SARS-CoV-2 pseudovirus = conditions: in vivo
BALB/c mice [3] = assay: Intranasal immunization with OVA plus lipopeptide, specific antibody ELISA; conditions: for serum OVA-specific IgG2a levels / serum OVA-specific IgG response compared with Pam2CSK4: intranasal OVA plus lipopeptide; for serum OVA-specific IgG2a levels: n=5, Figure 4H; for serum OVA-specific IgA / serum OVA-specific IgG: intranasal OVA (10 μg) plus lipopeptide, day 0, 14, 28, sera 14 days after final immunization, compared with OVA alone; for serum OVA-specific IgA / serum OVA-specific IgG / serum OVA-specific IgG response compared with Pam2CSK4 / vaginal OVA-specific IgG compared with Pam2CSK4: n=5; for OVA-specific sIgA in BALF compared with Pam2CSK4: n=5, Figures 5J, K; for vaginal OVA-specific IgG compared with Pam2CSK4: vaginal wash, only adjuvanted with LP2-2 reached significance
Method: (§2) For OVA immunization, mice were divided into 7 groups randomly. Mice were the mice were anesthetized with pentobarbital sodium (50 mg/kg) and then intranasally immunized with PBS, OVA (10 μg), OVA (10 μg) plus one of the following lipopeptides: LP1-30, LP1-34, LP2-2 and LP2-3 or OVA plus Pam2CSK4 on day 0, 14, 28. […] For SARS-CoV-2 recombinant RBD (rRBD) immunization, mice were intranasally immunized at two-week intervals with PBS, rRBD, rRBD plus LP1-34, rRBD plus LP2-2 or rRBD plus Pam2CSK4. Two weeks post the final immunization, mice were sacrificed and sera, saliva, stomach homogenates, intestinal lavage fluid and vaginal wash were collected for further analysis.
(§3) Specific IgG and sIgA levels were determined by standard indirect ELISA. 96-well flat bottom plates were coated with OVA or rRBD and incubated overnight at 4°C. After blocking with 5% BSA in PBST, the diluted samples were added into the plates and incubated at 37°C for 1h. HRP-conjugated goat anti-mouse IgG, IgG1, IgG2a or IgA was used as a secondary antibody. TMB substrate solution was added each well and incubated about 5-10 min. Then, the reaction was ended by adding stop solution. Finally, the optical density was detected by at 450nm in a micro-plate reader (Thermo Scientific).

RBD-ACE2 interaction = assay: SARS-CoV-2 neutralizing antibody detection (ELISA) after rRBD immunization; conditions: for rRBD-induced SARS-CoV-2 neutralizing antibody in sera (inhibition of RBD-ACE2 interaction): n=5, compared with rRBD alone group, Figures 9A, B
Method: For SARS-CoV-2 recombinant RBD (rRBD) immunization, mice were intranasally immunized at two-week intervals with PBS, rRBD, rRBD plus LP1-34, rRBD plus LP2-2 or rRBD plus Pam2CSK4. Two weeks post the final immunization, mice were sacrificed and sera, saliva, stomach homogenates, intestinal lavage fluid and vaginal wash were collected for further analysis.
SARS-CoV-2 neutralizing antibody detection was performed according to the manufacturer’s instruction (zybio). Briefly, the diluted sera, BALF or nasal wash mixed with HRP-conjugated RBD were added into the hACE2-coated plate, and then the plate was incubated at 37°C for 1h. After washing the plate, the TMB substrate was added and incubated at 37°C for 10min. Finally, the reaction was ended by adding the stop solution and the absorbance was measured with a micro-plate reader (Thermo Scientific) at 450 nm.

BALB/c mice [4] = assay: Intranasal immunization with SARS-CoV-2 rRBD plus lipopeptide, specific antibody ELISA; conditions: for RBD-specific serum IgG / RBD-specific serum IgA: intranasal rRBD with or without lipopeptide; for RBD-specific serum IgG: n=5, Figure 8A; for RBD-specific serum IgA: n=5, Figure 8B; for RBD-specific serum IgG1 compared with rRBD alone group: n=5, Figure 8C
Method: as §2, §3

[5] = target: T1, HEK-Blue mTLR2 cells (TLR2) (Mus musculus, UniProt Q9QUN7); assay: TLR2 signaling assay (SEAP activity, HEK-Blue detection); assay type: cell-based; conditions: 14 h at 37°C, read at 620 nm, n=3, Figure 2A
T1 construct: host or cells: HEK-Blue mTLR2 cells (HEK293-derived reporter line)
Method: HEK-Blue™ detection was prepared according to manufacturer’s instruction. Briefly, the lipopeptides were added into a flat-bottom 96-well plate (20μL per well) and endotoxin-free water was used as a negative control. Then HEK-Blue™ mTLR2 cells were suspended in HEK-Blue™ detection and added into the plate (180μL per well, 5×10^4 cells). After incubation at 37°C for 14h, the SEAP activity was measured by a spectrophotometer at 620nm.

BMDCs [6] = assay: Cytokines assay (ELISA of BMDC supernatants); assay type: cell-based, mouse; conditions: lipopeptide 1 μg/mL, 48 h, n=3, Figure 3G
Method: (§1) Bone marrow-derived dendritic cells (BMDCs) were isolated using methods described previously ([26], [27]). Briefly, the cells were obtained by flushing the femurs of female BALB/C mice, then differentiated in RPMI 1640 medium containing 10% FBS and supplemented with IL-4 (10ng/mL) and GM-CSF (10ng/mL) for 7 days at 37°C in 5% CO2.
BMDCs (4 × 10^6 cells/well in 4mL RMPI-1640 medium) were stimulated with either synthetic lipopeptide (1 μg/mL) or PBS for 48 h. The expressions of IL-1β, TNF-α and IL-12 were analyzed by ELISA kit according to the manufacturer’s instructions.

BMDCs [7] = assay: Cell viability assay (MTT); assay type: cell-based, mouse; conditions: test concentrations 10-200μg/mL, 48 h, n=3, Figure S3A
Method: The cell viability was analyzed by MTT assay. Briefly, BMDCs were cultured with gradient dilutions of each lipopeptide for 48 h. After that, 20 μL of a MTT solution (5 mg/ml) were added per well and incubated at 37°C for 4 h. Then, the mixture was removed from the well and 100 μL DMSO were added. The absorbance was detected at a wavelength of 570 nm. % surviving cells = Mean optical absorption of cells exposed to the lipopeptide/Mean optical absorption of control cells × 100.
as §1

BMDCs [8] = assay: BMDC maturation surface markers by flow cytometry; assay type: cell-based, mouse; conditions: BMDCs stimulated 2 days, FACS, Figures 3A-D
Method: as §1
BMDCs were collected after being treated with each lipopeptidet for 48h. The expressions of surface markers on BMDCs were detected by FCM with a FACS Canto II (BD Biosciences). The cells were stained with CD11c-FITC (Biolegend, 117306), CD86-PerCP (Biolegend, 105026), CD80-APC (Biolegend, 104714) and CD40-PE (Biolegend, 124610) at 4°C for 30min. After washing with PBS, the expression of costimulatory molecules was detected by flow cytometer.

T1 sequence (Q9QUN7 25-784): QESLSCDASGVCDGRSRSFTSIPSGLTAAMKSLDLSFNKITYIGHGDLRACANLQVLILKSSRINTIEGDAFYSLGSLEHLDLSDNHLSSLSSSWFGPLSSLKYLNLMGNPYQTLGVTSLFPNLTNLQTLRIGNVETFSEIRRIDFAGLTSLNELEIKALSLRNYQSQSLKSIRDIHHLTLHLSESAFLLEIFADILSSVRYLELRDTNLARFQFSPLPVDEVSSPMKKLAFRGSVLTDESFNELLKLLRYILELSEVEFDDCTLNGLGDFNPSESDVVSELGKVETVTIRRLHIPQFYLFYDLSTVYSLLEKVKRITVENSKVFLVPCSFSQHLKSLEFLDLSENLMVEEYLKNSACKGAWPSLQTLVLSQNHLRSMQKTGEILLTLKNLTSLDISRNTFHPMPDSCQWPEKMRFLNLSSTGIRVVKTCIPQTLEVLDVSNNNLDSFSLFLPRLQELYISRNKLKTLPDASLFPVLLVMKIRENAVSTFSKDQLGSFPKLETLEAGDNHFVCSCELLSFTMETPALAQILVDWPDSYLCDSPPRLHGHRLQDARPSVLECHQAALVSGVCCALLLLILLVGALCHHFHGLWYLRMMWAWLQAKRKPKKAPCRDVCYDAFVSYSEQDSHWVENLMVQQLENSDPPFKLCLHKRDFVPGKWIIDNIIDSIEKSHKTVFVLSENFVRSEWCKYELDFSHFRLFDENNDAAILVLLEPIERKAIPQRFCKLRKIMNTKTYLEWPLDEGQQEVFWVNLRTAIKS

| Substance | SARS-CoV-2 pseudovirus neutralizing antibody titers in serum (SARS-CoV-2 pseudovirus) | serum OVA-specific IgG2a levels (BALB/c mice [3]) | rRBD-induced SARS-CoV-2 neutralizing antibody in sera (inhibition of RBD-ACE2 interaction) (RBD-ACE2 interaction) | RBD-specific serum IgG (BALB/c mice [4]) | RBD-specific serum IgA (BALB/c mice [4]) | RBD-specific serum IgG1 compared with rRBD alone group (BALB/c mice [4]) | RBD-specific serum IgG2a compared with rRBD alone group (BALB/c mice [4]; n=5, Figure 8D) | SEAP activity compared with Pam2CSK4 [5] | serum OVA-specific IgA (BALB/c mice [3]) | serum OVA-specific IgG (BALB/c mice [3]) | vaginal OVA-specific IgG compared with Pam2CSK4 (BALB/c mice [3]) | also measured |
| --- | --- | --- | --- | --- | --- | --- | --- | --- | --- | --- | --- | --- |
| FSL-1 | – | – | – | – | – | – | – | – | – | – | – | TLR2 activity of FSL-1 relative to that of MALP-2 (TLR2): 4 times; EV71-specific IgG and IgA in serum, nasal washes, BALF, and feces compared with the control group ([1]; intranasal, inactivated EV71 vaccine plus FSL-1): higher level |
| FSL-2 | – | – | – | – | – | – | – | – | – | – | – | TLR2 activity of FSL-2 relative to that of FSL-1 (TLR2): 80% |
| MALP-2 | – | – | – | – | – | – | – | – | – | – | – | sIgA in BALF and vaginal lavages ([1]; intranasal co-administration with a soluble antigen): elevated |
| Pam2CSK4 [reference compound] | significantly augment | elevated | significantly elevated | significantly improved | significantly improved | elevated | elevated | – | – | – | – | IFN-γ-forming OVA257-264-specific CD8+ T cell response (BALB/c mice [2]): slightly elevated; IFN-γ-forming OVA323-339-specific CD4+ T cell response (BALB/c mice [2]): slightly elevated; TLR2 agonist potency rank among the four lipopeptides (FSL-1, FSL-2, MALP-2, Pam2CSK4) (TLR2): most potent TLR2 agonist |
| Pam2Cys-SEFAHPRHG [LP2-2] | significantly augment | elevated | significantly elevated | significantly improved | significantly improved | elevated | elevated | more increased SEAP activity than Pam2CSK4 | significantly increased | significantly increased | higher level | serum OVA-specific IgG response compared with Pam2CSK4 (BALB/c mice [3]): more robust; OVA-specific sIgA in BALF compared with Pam2CSK4 (BALB/c mice [3]): higher level |
| Pam2Cys-SEFQATYAP [LP2-3] | – | elevated | – | – | – | – | – | more increased SEAP activity than Pam2CSK4 | significantly increased | significantly increased | – | serum OVA-specific IgG response compared with Pam2CSK4 (BALB/c mice [3]): more robust |
| Pam2Cys-SHYAPLPDS [LP1-34] | significantly augment | – | significantly elevated | significantly improved | significantly improved | elevated | elevated | more increased SEAP activity than Pam2CSK4 | significantly increased | significantly increased | higher level | levels of IL-12 from BMDCs compared with Pam2CSK4 (BMDCs [6]): higher levels; OVA-specific sIgA in BALF compared with Pam2CSK4 (BALB/c mice [3]): higher level; ability of BALF and nasal wash to inhibit RBD interaction with ACE2 (RBD-ACE2 interaction; n=5, Figures 9C, D): improved; ability to enhance the level of RBD-specific mucosal sIgA and IgG compared with Pam2CSK4 (BALB/c mice [4]; intranasal rRBD plus lipopeptide, n=5): stronger; rank of RBD-specific IgG2a response among LP1-34, LP2-2 and Pam2CSK4 (BALB/c mice [4]; n=5, Figure 8D): highest |
| Pam2Cys-SKHANNTHA [LP1-14, novel synthetic lipopeptide] | – | – | – | – | – | – | – | more increased SEAP activity than Pam2CSK4 | – | – | – | cytotoxicity on BMDCs (MTT) (BMDCs [7]): slightly cytotoxic |
| Pam2Cys-SLARRNDTN [LP1-30] | – | – | – | – | – | – | – | more increased SEAP activity than Pam2CSK4 | significantly increased | significantly increased | higher level | stimulating effect on costimulatory molecule expression of BMDCs compared with Pam2CSK4 (BMDCs [8]): more potent stimulating effect; levels of IL-12 from BMDCs compared with Pam2CSK4 (BMDCs [6]): higher levels; anti-lipopeptide IgG antibodies in sera (BALB/c mice [3]; OVA+LP1-30 group, ELISA, n=5, Figure S4): did not reach statistical significance |

From paper PMC8959576 (Frontiers in Immunology, 2022)
